Measurements reported in US20250145606A1 (Arcus Biosciences, Inc., priority 2023, published 2025).
Read-outs that look alike come from different tables or passages of the source.

Legend:
c-Kit = c-Kit (Homo sapiens (Human), UniProt P10721); test: Inhibition of c-Kit kinase activity (HTRF KinEASE-TK); assay type: biochemical; conditions: biochemical
Procedure, shortened: (§1)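 Phosphorylation of biotinylated TK peptide read by HTRF (665/620 nm ratio) after 120 min at rt, following 1 h enzyme–compound preincubation. ATP (2× mix): 20 μM CSF1R, 16 μM c-Kit, 40 μM PDGFRβ, 1 μM PDGFRα; MgCl2 10 mM except c-Kit 5 mM. 22-point 1:2 titration; four-parameter IC50.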

PDGFRα = PDGFRα (Homo sapiens (Human), UniProt P16234); test: Inhibition of PDGFRα kinase activity (HTRF KinEASE-TK); conditions: biochemical
Procedure, shortened: as §1

PDGFRβ = PDGFRβ (Homo sapiens (Human), UniProt P09619); test: Inhibition of PDGFRβ kinase activity (HTRF KinEASE-TK); conditions: biochemical
Procedure, shortened: as §1

CSF1R = CSF1R (Homo sapiens (Human), UniProt P07333); test: Inhibition of CSF1R kinase activity (HTRF KinEASE-TK); conditions: biochemical
Procedure, shortened: as §1

FLT3 = FLT3 (Homo sapiens (Human), UniProt P36888); test: Inhibition of FLT3 kinase activity (HTRF KinEASE-TK); assay type: biochemical; conditions: biochemical
Procedure: Inhibition of c-Kit, PDGFRα, PDGFRβ, CSFIR and FLT3 Kinase Activity
Compounds were evaluated to determine the potency with which they inhibit the kinase activity of the following panel of tyrosine kinases: c-Kit (SignalChem, Product #: K06-11BG), PDGFRα (SignalChem, Product #: P12-18G), PDGFRβ (SignalChem, Product #: P13-11G), CSFIR (SignalChem, Product #: C74-11G) and FLT3 (Invitrogen, Product #: PR4666C). Activity was determined as a function of phosphorylated biotinylated TK peptide generated by the transfer of phosphate from ATP as measured by the use of the HTRF KinEASE-TK assay kit (Cisbio, Product #: 62TKOPEJ). Levels of phosphorylated biotinylated TK peptide (Part 61TKOBLC of KinEASE assay kit) are quantified by its capture by phosphor-TK-Antibody-Cryptate (Part of KinEASE assay kit) and XL665-labeled Streptavidin (Part 610SAXLG of KinEASE assay kit) followed by measurement of Time-Resolved Fluorescence Resonance Energy Transfer (TR-FRET) signal. On the day of the assay, compounds were solubilized in DMSO and dispensed into a 384-well white Opti-plate (PerkinElmer, catalog #6007290) to generate a 22 point 1:2 titration. Enzyme solution was prepared for each of the tyrosine kinases in 50 mM HEPES, pH 7.4, 5 mM MgCl2 for c-Kit or 10 mM MgCl2 for FLT3, CSFIR, PDGFRa and PDGFRβ, 2 mM MnCl2, 0.01% Brij-35 and 0.01% BSA. Working enzyme concentrations were prepared for c-Kit at 2 nM (2×), PDGFRa and PDGFRß at 10 nM (2×), CSFIR at 2 nM (2×) and FLT3 at 0.4 nM (2×). Five microliters of enzyme dilution of each tyrosine kinase were added to their respective 384-well white Opti-plate pre-dispensed with compound and allowed to incubate for 1 h at rt. Utilizing the same enzyme buffer recipe, 2x substrate mixes were prepared for each enzyme as follows: For c-Kit, 1.6 μM (2×) TK substrate and 16 μM (2×) ATP (Promega, catalog #V915). For PDGFRα, 3.2 μM TK substrate and 1 μM ATP. For PDGFRβ, 3.2 μM TK substrate and 40 μM ATP. For CSFIR, […] TK substrate and 20 μM ATP. For FLT3, 3.2 μM TK substrate and 100 μM ATP. Reactions were initiated by addition of 5 μL of the respective 2x substrate mix to each well of the plates containing the respective tyrosine kinase enzymes and were allowed to proceed for 120 minutes at rt, except for FLT3, the reaction time is 45 min. Following the reaction, 10 μL of detection mix consisting of 0.2 μM (2×) of Streptavidin-XL665 and 2 μM (2×) of TK-Antibody-Cryptate prepared in detection buffer (Part 62SDBRDF of KinEASE assay kit) was added and then allowed to incubate for 60 min. The TR-FRET signal was quantified by measuring the ratio of emission at 665 nm to 620 nm after excitation at 320 nm by reading on a PerkinElmer Envision multimode reader. Compound potencies (IC50 values) were determined using a standard 4-parameter non-linear regression fit.

[1] = system: Phospho-KIT (Y703) in M07e cells; test: Phospho-KIT (Y703) cellular assay in M07e cells; assay type: cell-based; conditions: M-07e, read-out: M07e Cell IC50
Procedure, shortened: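 Serum-starved M07e cells preincubated 50 min at 37° C with 11-point half-log compound titration, then stimulated 10 min with SCF at 90.9 ng/mL final. Fixed, permeabilized cells stained for phospho-KIT Y703 and read by flow cytometry (live-gated geometric mean); IC50 by 4-parameter fit normalized to DMSO and positive control.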

[2] = phospho-KIT (Y703), SCF-stimulated M07e cells

Sequence of FLT3 (P36888 27-993): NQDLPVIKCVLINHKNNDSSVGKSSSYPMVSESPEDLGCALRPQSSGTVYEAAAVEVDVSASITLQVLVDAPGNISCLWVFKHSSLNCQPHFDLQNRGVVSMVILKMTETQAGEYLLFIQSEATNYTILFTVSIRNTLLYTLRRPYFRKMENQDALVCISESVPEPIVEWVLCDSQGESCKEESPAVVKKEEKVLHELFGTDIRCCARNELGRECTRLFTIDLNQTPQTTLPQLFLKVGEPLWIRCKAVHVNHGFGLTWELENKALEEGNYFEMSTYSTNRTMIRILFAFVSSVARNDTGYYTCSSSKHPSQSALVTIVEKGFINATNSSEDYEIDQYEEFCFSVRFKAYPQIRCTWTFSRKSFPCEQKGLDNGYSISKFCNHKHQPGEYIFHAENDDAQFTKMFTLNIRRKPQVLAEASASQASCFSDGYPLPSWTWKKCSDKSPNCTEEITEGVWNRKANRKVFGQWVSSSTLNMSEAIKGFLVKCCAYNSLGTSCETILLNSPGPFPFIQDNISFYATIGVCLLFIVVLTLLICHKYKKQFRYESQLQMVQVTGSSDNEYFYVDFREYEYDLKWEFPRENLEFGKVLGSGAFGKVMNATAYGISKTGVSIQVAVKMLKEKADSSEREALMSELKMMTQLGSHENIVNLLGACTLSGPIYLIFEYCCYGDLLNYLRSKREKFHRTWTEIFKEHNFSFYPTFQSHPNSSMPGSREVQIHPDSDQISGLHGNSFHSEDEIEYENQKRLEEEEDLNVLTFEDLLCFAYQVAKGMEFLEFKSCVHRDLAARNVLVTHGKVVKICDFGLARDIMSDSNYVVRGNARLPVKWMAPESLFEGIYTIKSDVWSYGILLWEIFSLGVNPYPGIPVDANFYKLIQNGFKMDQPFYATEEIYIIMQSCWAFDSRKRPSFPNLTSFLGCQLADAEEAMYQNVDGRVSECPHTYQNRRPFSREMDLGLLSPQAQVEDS
Sequence of PDGFRα (P16234 24-1089): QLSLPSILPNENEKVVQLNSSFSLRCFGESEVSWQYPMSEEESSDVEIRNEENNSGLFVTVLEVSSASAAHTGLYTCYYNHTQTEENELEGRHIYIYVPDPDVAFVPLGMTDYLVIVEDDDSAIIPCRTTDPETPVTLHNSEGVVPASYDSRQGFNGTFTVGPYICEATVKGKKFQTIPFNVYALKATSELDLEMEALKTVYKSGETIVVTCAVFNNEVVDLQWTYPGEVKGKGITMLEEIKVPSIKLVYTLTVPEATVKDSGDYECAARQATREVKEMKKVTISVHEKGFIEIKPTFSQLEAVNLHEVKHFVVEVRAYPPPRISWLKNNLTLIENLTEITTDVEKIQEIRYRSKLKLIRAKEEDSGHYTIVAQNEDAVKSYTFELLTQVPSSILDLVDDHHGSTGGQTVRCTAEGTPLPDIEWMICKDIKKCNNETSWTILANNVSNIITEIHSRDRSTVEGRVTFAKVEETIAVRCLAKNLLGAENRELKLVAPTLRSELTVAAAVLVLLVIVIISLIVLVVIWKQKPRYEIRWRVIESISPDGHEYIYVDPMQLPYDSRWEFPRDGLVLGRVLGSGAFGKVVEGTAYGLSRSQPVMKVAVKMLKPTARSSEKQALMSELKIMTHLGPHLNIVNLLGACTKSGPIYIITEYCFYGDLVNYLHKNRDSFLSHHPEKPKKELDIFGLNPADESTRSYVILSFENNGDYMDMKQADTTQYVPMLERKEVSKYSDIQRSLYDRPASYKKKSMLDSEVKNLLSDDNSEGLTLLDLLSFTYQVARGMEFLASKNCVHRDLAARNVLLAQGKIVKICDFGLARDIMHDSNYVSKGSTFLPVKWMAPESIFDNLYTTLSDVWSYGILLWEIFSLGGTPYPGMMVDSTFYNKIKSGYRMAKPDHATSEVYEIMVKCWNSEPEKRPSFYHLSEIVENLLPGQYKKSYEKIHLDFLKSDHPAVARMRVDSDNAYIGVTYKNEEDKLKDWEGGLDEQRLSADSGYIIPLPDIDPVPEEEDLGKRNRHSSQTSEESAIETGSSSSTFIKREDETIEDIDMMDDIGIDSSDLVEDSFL
Sequence of CSF1R (P07333 20-972): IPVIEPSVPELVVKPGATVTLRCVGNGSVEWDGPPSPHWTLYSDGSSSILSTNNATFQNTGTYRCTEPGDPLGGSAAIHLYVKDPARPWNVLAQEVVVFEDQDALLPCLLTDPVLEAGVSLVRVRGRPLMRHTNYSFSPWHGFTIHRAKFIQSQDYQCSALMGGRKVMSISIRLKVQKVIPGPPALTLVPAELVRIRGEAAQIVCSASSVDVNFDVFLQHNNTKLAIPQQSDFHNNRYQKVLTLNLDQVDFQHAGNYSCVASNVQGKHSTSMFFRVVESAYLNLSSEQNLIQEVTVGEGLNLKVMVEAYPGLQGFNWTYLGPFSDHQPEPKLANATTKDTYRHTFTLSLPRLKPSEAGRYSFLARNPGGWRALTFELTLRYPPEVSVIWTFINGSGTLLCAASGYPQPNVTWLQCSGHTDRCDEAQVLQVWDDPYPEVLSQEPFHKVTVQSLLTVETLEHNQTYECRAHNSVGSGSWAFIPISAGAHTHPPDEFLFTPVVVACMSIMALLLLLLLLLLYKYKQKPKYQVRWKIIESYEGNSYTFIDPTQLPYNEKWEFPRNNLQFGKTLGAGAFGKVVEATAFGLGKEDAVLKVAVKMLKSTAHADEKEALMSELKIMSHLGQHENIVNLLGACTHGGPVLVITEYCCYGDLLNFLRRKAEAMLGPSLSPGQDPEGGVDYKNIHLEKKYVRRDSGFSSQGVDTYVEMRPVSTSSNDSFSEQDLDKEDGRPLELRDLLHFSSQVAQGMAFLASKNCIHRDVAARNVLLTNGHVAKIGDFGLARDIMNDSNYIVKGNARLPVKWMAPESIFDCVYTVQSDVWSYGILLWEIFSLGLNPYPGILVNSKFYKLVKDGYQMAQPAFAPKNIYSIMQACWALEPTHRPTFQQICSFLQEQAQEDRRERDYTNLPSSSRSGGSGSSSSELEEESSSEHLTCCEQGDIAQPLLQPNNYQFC
Sequence of PDGFRβ (P09619 33-1106): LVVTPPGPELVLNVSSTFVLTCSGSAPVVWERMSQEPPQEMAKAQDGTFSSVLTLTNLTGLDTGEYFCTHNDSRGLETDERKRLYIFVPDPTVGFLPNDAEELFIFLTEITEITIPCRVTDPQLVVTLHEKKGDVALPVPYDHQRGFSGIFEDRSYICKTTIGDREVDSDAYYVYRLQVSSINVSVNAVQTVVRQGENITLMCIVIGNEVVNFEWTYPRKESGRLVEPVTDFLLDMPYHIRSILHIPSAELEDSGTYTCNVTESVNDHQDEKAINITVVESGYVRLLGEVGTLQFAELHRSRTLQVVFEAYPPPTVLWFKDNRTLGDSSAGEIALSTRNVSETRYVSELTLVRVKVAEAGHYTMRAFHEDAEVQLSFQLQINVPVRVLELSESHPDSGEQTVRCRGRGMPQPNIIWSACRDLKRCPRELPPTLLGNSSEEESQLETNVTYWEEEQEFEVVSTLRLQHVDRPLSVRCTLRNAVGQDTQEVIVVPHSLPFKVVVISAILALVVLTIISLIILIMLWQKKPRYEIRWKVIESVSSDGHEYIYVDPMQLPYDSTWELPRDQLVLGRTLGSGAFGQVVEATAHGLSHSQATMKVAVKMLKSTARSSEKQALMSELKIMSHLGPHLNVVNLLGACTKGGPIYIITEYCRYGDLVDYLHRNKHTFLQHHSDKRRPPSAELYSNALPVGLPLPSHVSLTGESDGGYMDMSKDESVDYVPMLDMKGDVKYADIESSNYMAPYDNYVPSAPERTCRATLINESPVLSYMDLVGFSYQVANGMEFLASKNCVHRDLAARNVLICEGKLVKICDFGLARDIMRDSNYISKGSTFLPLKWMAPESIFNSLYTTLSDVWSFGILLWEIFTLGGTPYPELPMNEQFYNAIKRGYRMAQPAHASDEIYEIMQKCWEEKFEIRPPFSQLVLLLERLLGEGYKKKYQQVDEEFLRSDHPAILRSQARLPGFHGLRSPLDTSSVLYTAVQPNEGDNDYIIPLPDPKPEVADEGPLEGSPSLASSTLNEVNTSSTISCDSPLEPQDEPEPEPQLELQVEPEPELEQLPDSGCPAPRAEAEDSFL
Sequence of c-Kit (P10721 26-976): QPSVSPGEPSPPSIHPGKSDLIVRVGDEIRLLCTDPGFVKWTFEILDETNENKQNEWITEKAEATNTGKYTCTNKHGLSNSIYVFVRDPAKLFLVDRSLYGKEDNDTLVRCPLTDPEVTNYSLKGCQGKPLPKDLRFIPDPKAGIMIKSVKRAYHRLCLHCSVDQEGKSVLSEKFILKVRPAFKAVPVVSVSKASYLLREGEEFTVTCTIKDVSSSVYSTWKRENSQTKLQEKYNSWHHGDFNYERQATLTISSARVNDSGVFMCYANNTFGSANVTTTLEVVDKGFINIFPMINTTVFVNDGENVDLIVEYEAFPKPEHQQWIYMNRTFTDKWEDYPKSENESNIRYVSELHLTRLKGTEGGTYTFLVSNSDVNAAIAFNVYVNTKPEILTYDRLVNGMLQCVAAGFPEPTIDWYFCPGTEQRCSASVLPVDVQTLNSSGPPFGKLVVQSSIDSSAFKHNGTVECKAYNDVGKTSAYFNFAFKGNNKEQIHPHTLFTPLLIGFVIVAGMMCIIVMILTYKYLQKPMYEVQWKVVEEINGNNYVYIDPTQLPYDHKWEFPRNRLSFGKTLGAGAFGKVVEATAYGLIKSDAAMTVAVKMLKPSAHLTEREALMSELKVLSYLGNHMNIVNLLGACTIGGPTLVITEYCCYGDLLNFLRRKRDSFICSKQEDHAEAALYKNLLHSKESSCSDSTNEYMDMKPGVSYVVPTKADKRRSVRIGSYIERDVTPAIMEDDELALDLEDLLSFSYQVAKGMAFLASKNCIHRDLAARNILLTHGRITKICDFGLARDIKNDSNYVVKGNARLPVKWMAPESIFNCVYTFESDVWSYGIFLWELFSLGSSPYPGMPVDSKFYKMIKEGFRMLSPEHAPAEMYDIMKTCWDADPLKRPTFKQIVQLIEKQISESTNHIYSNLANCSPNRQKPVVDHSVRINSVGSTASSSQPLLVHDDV

| SMILES | IC50 (c-Kit) [nM] | IC50 (PDGFRα) [nM] | IC50 (PDGFRβ) [nM] | IC50 (CSF1R) [nM] | IC50 (FLT3) [nM] | IC50 [1, 2] [nM] | IC50 (c-Kit; HTRF KinEASE-TK) [nM] | IC50 (CSF1R; HTRF KinEASE-TK) [nM] | IC50 (FLT3; HTRF KinEASE-TK) [nM] | IC50 ([1]; Phospho-KIT (Y703), M07e cells) [nM] | IC50 (PDGFRα; HTRF KinEASE-TK) [nM] | IC50 (PDGFRβ; HTRF KinEASE-TK) [nM] |
| --- | --- | --- | --- | --- | --- | --- | --- | --- | --- | --- | --- | --- |
| COCc1ccc(NC(=O)c2cc(NC(=O)c3cnc(N)s3)c(C)cc2F)nc1 [Example 10, 2-Amino-N-[4-fluoro-5-[[5-(methoxymethyl)pyridin-2-yl]carbamoyl]-2-methylphenyl]-1,3-thiazole-5-carboxamide] | < 100 | > 1000 | > 1000 | > 1000 | > 1000 | < 100 | – | – | – | – | – | – |
| Cc1cc(F)c(C(=O)Nc2ccc(CC(F)(F)F)cn2)cc1NC(=O)c1cnc(N)s1 [Example 11, 2-Amino-N-[4-fluoro-2-methyl-5-[[5-(2,2,2-trifluoroethyl)pyridin-2-yl]carbamoyl]phenyl]-1,3-thiazole-5-carboxamide] | < 100 | 100 to 1000 | < 100 | 100 to 1000 | > 1000 | < 100 | – | – | – | – | – | – |
| Cc1ncc(C(=O)Nc2cc(C(=O)Nc3cnc(OC4CC4)cn3)c(F)cc2C)s1 [Example 13, N-[5-[(5-Cyclopropyloxypyrazin-2-yl)carbamoyl]-4-fluoro-2-methylphenyl]-2-methyl-1,3-thiazole-5-carboxamide] | – | – | – | – | – | – | < 100 | > 1000 | > 1000 | < 100 | – | – |
| Cc1ncc(C(=O)Nc2cc(C(=O)Nc3ccc(C(C)(F)F)cn3)c(F)cc2C)s1 [Example 20, N-[5-[[5-(1,1-Difluoroethyl)pyridin-2-yl]carbamoyl]-4-fluoro-2-methylphenyl]-2-methyl-1,3-thiazole-5-carboxamide] | – | – | – | – | – | – | < 100 | > 1000 | > 1000 | < 100 | > 1000 | > 1000 |
| Cc1ncc(C(=O)Nc2cc(C(=O)Nc3ccc(C4CC4)nc3)c(F)cc2C)s1 [Example 24, N-[5-[(6-Cyclopropylpyridin-3-yl)carbamoyl]-4-fluoro-2-methylphenyl]-2-methyl-1,3-thiazole-5-carboxamide] | – | – | – | – | – | – | < 100 | > 1000 | > 1000 | < 100 | – | – |
| Cc1ncc(C(=O)Nc2cc(C(=O)Nc3cnc(OC(F)(F)F)cn3)c(F)cc2C)s1 [Example 87, N-[5-(N-5-trifluoromethoxy-2-pyrazinylcarbamoyl)-4-fluoro-2-tolyl]-2-methyl-1,3-thiazole-5-carboxamide] | – | – | – | – | – | – | < 100 | > 1000 | > 1000 | < 100 | – | – |
| Cc1ncc(C(=O)Nc2cc(C(=O)Nc3cnc(CC4CC4)cn3)c(F)cc2C)s1 [Example 91, N-{5-[N-5-(cyclopropylmethyl)-2-pyrazinylcarbamoyl]-4-fluoro-2-tolyl}-2-methyl-1,3-thiazole-5-carboxamide] | – | – | – | – | – | – | < 100 | > 1000 | > 1000 | < 100 | – | – |
| Cc1cc(F)c(C(=O)NCC2(F)CCC2)cc1NC(=O)c1cnc(NC(=O)N2CCC2)s1 [Example 104, 2-(Azetidine-1-carbonylamino)-N-[4-fluoro-5-[(1-fluorocyclobutyl)methylcarbamoyl]-2-methylphenyl]-1,3-thiazole-5-carboxamide] | – | – | – | – | – | – | < 100 | 100 to 1000 | > 1000 | < 100 | – | – |
| COCCn1ccc(NC(=O)c2cc(NC(=O)c3cnc(N)s3)c(C)cc2F)n1 [Example 154, 2-Amino-N-[4-fluoro-5-[[1-(2-methoxyethyl)pyrazol-3-yl]carbamoyl]-2-methylphenyl]-1,3-thiazole-5-carboxamide] | – | – | – | – | – | – | < 100 | – | > 1000 | < 100 | > 1000 | > 1000 |
| Cc1cc(F)c(C(=O)Nc2ccn(-c3ccccn3)n2)cc1NC(=O)c1cnc(N)s1 [Example 168, 2-Amino-N-[4-fluoro-2-methyl-5-[(1-pyridin-2-ylpyrazol-3-yl)carbamoyl]phenyl]-1,3-thiazole-5-carboxamide] | – | – | – | – | – | – | < 100 | > 1000 | > 1000 | < 100 | – | > 1000 |
| Cc1cc(F)c(C(=O)NCC2(F)CC2)cc1NC(=O)c1cnc(N)s1 [Example 193, 2-Amino-N-[4-fluoro-5-[(1-fluorocyclopropyl)methylcarbamoyl]-2-methylphenyl]-1,3-thiazole-5-carboxamide] | – | – | – | – | – | – | < 100 | > 1000 | > 1000 | < 100 | – | – |

Next, values leading:

| IC50 (c-Kit) [nM] | IC50 (PDGFRα) [nM] | IC50 (PDGFRβ) [nM] | IC50 (CSF1R) [nM] | IC50 (FLT3) [nM] | IC50 [1, 2] [nM] | IC50 (c-Kit; HTRF KinEASE-TK) [nM] | IC50 (CSF1R; HTRF KinEASE-TK) [nM] | IC50 (FLT3; HTRF KinEASE-TK) [nM] | IC50 ([1]; Phospho-KIT (Y703), M07e cells) [nM] | IC50 (PDGFRα; HTRF KinEASE-TK) [nM] | IC50 (PDGFRβ; HTRF KinEASE-TK) [nM] | SMILES |
| --- | --- | --- | --- | --- | --- | --- | --- | --- | --- | --- | --- | --- |
| < 100 | 100 to 1000 | < 100 | 100 to 1000 | > 1000 | < 100 | – | – | – | – | – | – | Cc1cc(F)c(C(=O)Nc2ccc(CC3CC3)cn2)cc1NC(=O)c1cnc(N)s1 [Example 7, 2-Amino-N-[5-[[5-(cyclopropylmethyl)pyridin-2-yl]carbamoyl]-4-fluoro-2-methylphenyl]-1,3-thiazole-5-carboxamide] |
| < 100 | 100 to 1000 | 100 to 1000 | 100 to 1000 | > 1000 | < 100 | – | – | – | – | – | – | Cc1cc(F)c(C(=O)Nc2ccc(OC(F)(F)F)cn2)cc1NC(=O)c1cnc(N)s1 [Example 8, 2-Amino-N-[4-fluoro-2-methyl-5-[[5-(trifluoromethoxy)pyridin-2-yl]carbamoyl]phenyl]-1,3-thiazole-5-carboxamide] |
| < 100 | > 1000 | 100 to 1000 | 100 to 1000 | > 1000 | < 100 | – | – | – | – | – | – | Cc1cc(F)c(C(=O)Nc2ccc(OC(F)F)cn2)cc1NC(=O)c1cnc(N)s1 [Example 9, 2-Amino-N-[5-[[5-(difluoromethoxy)pyridin-2-yl]carbamoyl]-4-fluoro-2-methylphenyl]-1,3-thiazole-5-carboxamide] |
| – | – | – | – | – | – | < 100 | > 1000 | > 1000 | < 100 | > 1000 | > 1000 | CCOc1cnc(NC(=O)c2cc(NC(=O)c3cnc(C)s3)c(C)cc2F)cn1 [Example 17, N-[5-[(5-Ethoxypyrazin-2-yl)carbamoyl]-4-fluoro-2-methylphenyl]-2-methyl-1,3-thiazole-5-carboxamide] |
| – | – | – | – | – | – | < 100 | – | > 1000 | < 100 | > 1000 | > 1000 | Nc1ncc(C(=O)Nc2cc(C(=O)Nc3ccc(OC4CC4)cn3)c(F)cc2F)s1 [Example 222, 2-Amino-N-[5-[(5-cyclopropyloxypyridin-2-yl)carbamoyl]-2,4-difluorophenyl]-1,3-thiazole-5-carboxamide] |
| – | – | – | – | – | – | < 100 | > 1000 | > 1000 | – | > 1000 | < 100 | CC(=O)Nc1ncc(C(=O)Nc2cc(C(=O)Nc3ccc(OC4CC4)cn3)c(F)cc2C)s1 [Example 240, 2-Acetamido-N-[5-[(5-cyclopropyloxypyridin-2-yl)carbamoyl]-4-fluoro-2-methylphenyl]-1,3-thiazole-5-carboxamide] |
